Measured values reported in ChEMBL document CHEMBL1201862, “PubChem BioAssay data set” (2004).
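All cell lines were grown in 96-well plates and treated with compound for 48 hours. Here, GI50 denotes the concentration required for 50% inhibition of growth.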 The source made the active and inactive calls. No stated cut-off is given here; in the data, active = GI50 up to about 1.1 µM and inactive = higher.

Columns and labels:
Test in all cases: NCI anticancer screen, dose series, 48 h
[1] = system: MDA-MB-435
[2] = system: IGROV-1
[3] = system: U-251
[4] = system: MDA-N
[5] = system: RXF 393
[6] = system: HL-60
[7] = system: MCF7
[8] = system: SF-295
[9] = system: SNB-75
[10] = system: CAKI-1
[11] = system: NCI-H460
[12] = system: MDA-MB-231
[13] = system: OVCAR-5
[14] = system: COLO 205
[15] = system: HCC 2998
[16] = system: HCT-15
[17] = system: SNB-19
[18] = system: OVCAR-3
[19] = system: NCI-H226
[20] = system: NCI-H522

SMILES	GI50 [1]	GI50 [2]	GI50 [3]	GI50 [4]	GI50 [5]	GI50 [6]	GI50 [7]	GI50 [8]	GI50 [9]	GI50 [10]	GI50 [11]	GI50 [12]	GI50 [13]	GI50 [14]	GI50 [15]	GI50 [16] [µM]	GI50 [17]	GI50 [18]	GI50 [19]	GI50 [20]
C=C1C(=O)O[C@@H]2/C=C(C)/C=C\[C@@H]3O[C@@]3(C)C[C@@H](O)C12 (stereo not given in full)	18 µM (inactive)	13 µM (inactive)	17.8 µM (inactive)	13.2 µM (inactive)	18.7 µM (inactive)	2.54 µM (inactive)	4.4 µM (inactive)	49.7 µM (inactive)	44.3 µM (inactive)	8.91 µM (inactive)	28.9 µM (inactive)	> 10 µM (inactive)	33.2 µM (inactive)	5.2 µM (inactive)	18.9 µM (inactive)	6.27	17.5 µM (inactive)	14.1 µM (inactive)	9.1 µM (inactive)	4.23 µM (inactive)
CCOC(=O)C1(C(=O)OCC)[C@H](c2ccccc2)C2=NO[C@@H]3CCC[C@H]1[C@H]23	21.4 µM (inactive)	56.8 µM (inactive)	49.9 µM (inactive)	31.2 µM (inactive)	52.1 µM (inactive)	33.8 µM (inactive)	41.4 µM (inactive)	33.4 µM (inactive)	30.1 µM (inactive)	48.3 µM (inactive)	60.5 µM (inactive)	75.7 µM (inactive)	65.6 µM (inactive)	33 µM (inactive)	22.1 µM (inactive)	43.6	> 100 µM (inactive)	25.1 µM (inactive)	32.9 µM (inactive)	42.9 µM (inactive)
CN1CCCC(C(=O)OCC(=O)C2(O)CCC3C4CCC5=CC(=O)CCC5(C)C4C(O)CC32C)C1 (stereo not given)	12.6 µM (inactive)	23.4 µM (inactive)	4.29 µM (inactive)	10.7 µM (inactive)	8.49 µM (inactive)	3.69 µM (inactive)	12.6 µM (inactive)	19.9 µM (inactive)	4.85 µM (inactive)	24.2 µM (inactive)	11.5 µM (inactive)	4.32 µM (inactive)	18.1 µM (inactive)	18 µM (inactive)	7.89 µM (inactive)	18.7	8.05 µM (inactive)	17 µM (inactive)	17.1 µM (inactive)	17.3 µM (inactive)
CC(=S)N/C=C1/C(=O)C=C(C)OC1=O	> 100 µM (inactive)	> 100 µM (inactive)	> 100 µM (inactive)	> 100 µM (inactive)	> 100 µM (inactive)	> 100 µM (inactive)	> 100 µM (inactive)	> 100 µM (inactive)	54.3 µM (inactive)	> 100 µM (inactive)	> 100 µM (inactive)	> 100 µM (inactive)	> 100 µM (inactive)	> 100 µM (inactive)	> 100 µM (inactive)	> 100	> 100 µM (inactive)	> 100 µM (inactive)	> 100 µM (inactive)	> 100 µM (inactive)
COC(=O)C12CCC(C(F)(F)C1=O)C2(C)C (stereo not given)	> 100 µM (inactive)	> 100 µM (inactive)	> 100 µM (inactive)	> 100 µM (inactive)	> 100 µM (inactive)	> 100 µM (inactive)	> 100 µM (inactive)	> 100 µM (inactive)	> 100 µM (inactive)	> 100 µM (inactive)	> 100 µM (inactive)	> 100 µM (inactive)	> 100 µM (inactive)	> 100 µM (inactive)	> 100 µM (inactive)	> 100	> 100 µM (inactive)	> 100 µM (inactive)	> 100 µM (inactive)	> 100 µM (inactive)
CC(=O)O[C@H]1C[C@H](O[C@H]2[C@@H](O)C[C@H](O[C@H]3[C@@H](O)C[C@H](O[C@H]4CC[C@@]5(C)[C@H](CC[C@@H]6[C@@H]5CC[C@]5(C)[C@@H](C7=CC(=O)OC7)CC[C@]65O)C4)O[C@@H]3C)O[C@@H]2C)O[C@H](C)[C@H]1O[C@@H]1O[C@H](CO)[C@@H](O)[C@H](O)[C@H]1O	0.034 µM (active)	< 0.01 µM (active)	0.032 µM (active)	0.0398 µM (active)	0.0288 µM (active)	0.0149 µM (active)	0.013 µM (active)	< 0.0161 µM (active)	0.0687 µM (active)	< 0.01 µM (active)	< 0.01 µM (active)	0.256 µM (active)	0.0342 µM (active)	0.0491 µM (active)	0.0615 µM (active)	0.0231	0.0658 µM (active)	< 0.01 µM (active)	0.103 µM (active)	< 0.01 µM (active)
